According to PubChem BioAssay AID256 (DTP/NCI, 2004):
Toxic doses and inconclusive results are not listed. The calls were made as follows: active = survival T/C of 150% or more; inactive = T/C below 125% in these data.

System: CD2F1 mice, L1210 leukemia ip, survival T/C
Assay: NCI In Vivo Anticancer Drug Screen. Data for tumor model L1210 Leukemia (intraperitoneal) in CD2F1 (CDF1) mice
Conditions: endpoint: mean survival time, higher = longer survival
In short: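 Read-out first: treated-group measurement over vehicle-control measurement, expressed as a ratio. Animals bore a transplanted tumor line and were dosed with compound or vehicle.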

[1] = dose: 100.0 mg/kg/injection, schedule: Q04DX003 (ip), vehicle: saline with Tween-80
[2] = dose: 100.0 mg/kg/injection, schedule: Q01DX009 (ip), vehicle: saline
[3] = dose: 200.0 mg/kg/injection, schedule: Q01DX009 (ip), vehicle: saline
[4] = dose: 400.0 mg/kg/injection, schedule: Q01DX009 (ip), vehicle: saline

Measured: T/C

CC(C)C(=O)[O][Sn]([CH2]c1ccccc1)([CH2]c1ccccc1)[CH2]c1ccccc1
inactive: dose: 25.0 mg/kg/injection, schedule: Q01DX009 (ip), vehicle: saline with Tween-80 90 % of control | dose: 25.0 mg/kg/injection, schedule: Q04DX003 (ip), vehicle: saline with Tween-80 95 % of control | dose: 50.0 mg/kg/injection, schedule: Q01DX009 (ip), vehicle: saline with Tween-80 95 % of control | dose: 50.0 mg/kg/injection, schedule: Q04DX003 (ip), vehicle: saline with Tween-80 90 % of control | [1] 87 % of control

CC1=C(C)C2(C)C(C)(O)C(C)(O)C12C (centres undefined)
inactive: dose: 18.75 mg/kg/injection, schedule: Q01DX009 (ip), vehicle: saline with Tween-80 98 % of control | dose: 37.5 mg/kg/injection, schedule: Q01DX009 (ip), vehicle: saline with Tween-80 93 % of control | dose: 75.0 mg/kg/injection, schedule: Q01DX009 (ip), vehicle: saline with Tween-80 96 % of control

CCOCCNc1ccc(S(=O)(=O)c2ccc(N)cc2)cc1N
inactive: [2] 103 % of control | [3] 92 % of control | [4] 92 % of control

CC[n+]1c(-c2ccccc2)c2cc(N)ccc2c2ccc(N)cc21 (tested in a mixture with another compound)
inactive: dose: 5.0 mg/kg/injection, schedule: Q01DX009 (ip), vehicle: water 104 % of control | dose: 10.0 mg/kg/injection, schedule: Q01DX009 (ip), vehicle: water 104 % of control | dose: 20.0 mg/kg/injection, schedule: Q01DX009 (ip), vehicle: water 104 % of control | dose: 40.0 mg/kg/injection, schedule: Q01DX009 (ip), vehicle: water 102 % of control | dose: 80.0 mg/kg/injection, schedule: Q01DX009 (ip), vehicle: water 86 % of control

CC(=O)Cc1nc(N)nc(Nc2ccc(Cl)c(Cl)c2)n1
inactive: [2] 96 % of control | [3] 97 % of control | [4] 111 % of control

CCOCc1cc(C)[nH]c(=O)c1C#N
inactive: [1] 96 % of control | dose: 200.0 mg/kg/injection, schedule: Q04DX003 (ip), vehicle: saline with Tween-80 98 % of control

C=C(C)CN=C=S
inactive: [1] 98 % of control

CN(C)N=Nc1cccc(Cl)c1
inactive: dose: 79.0 mg/kg/injection, schedule: Q01DX009 (ip), vehicle: Klucel (hydroxypropylcellulose) (HPC) 111 % of control | dose: 118.0 mg/kg/injection, schedule: Q01DX009 (ip), vehicle: Klucel (hydroxypropylcellulose) (HPC) 108 % of control | dose: 177.0 mg/kg/injection, schedule: Q01DX009 (ip), vehicle: Klucel (hydroxypropylcellulose) (HPC) 123 % of control | dose: 266.0 mg/kg/injection, schedule: Q01DX009 (ip), vehicle: Klucel (hydroxypropylcellulose) (HPC) 108 % of control

O=S(=O)(Nc1cc(Cl)c(NS(=O)(=O)c2ccccc2)cc1Cl)c1ccccc1
inactive: dose: 100.0 mg/kg/injection, schedule: Q01DX001 (ip), vehicle: saline with Tween-80 96 % of control | dose: 200.0 mg/kg/injection, schedule: Q01DX001 (ip), vehicle: saline with Tween-80 88 % of control | dose: 400.0 mg/kg/injection, schedule: Q01DX001 (ip), vehicle: saline with Tween-80 93 % of control

C=C1C(=O)O[C@@H]2[C@H](O)[C@@H](C)[C@@H]3C=CC(=O)[C@@]3(C)[C@H](OC(=O)C=C(C)C)[C@H]12
inactive: dose: 1.25 mg/kg/injection, schedule: Q01DX009 (ip), vehicle: saline with Tween-80 100 % of control | dose: 2.5 mg/kg/injection, schedule: Q01DX009 (ip), vehicle: saline with Tween-80 102 % of control | dose: 5.0 mg/kg/injection, schedule: Q01DX009 (ip), vehicle: saline with Tween-80 108 % of control | dose: 10.0 mg/kg/injection, schedule: Q01DX009 (ip), vehicle: saline with Tween-80 106 % of control | dose: 20.0 mg/kg/injection, schedule: Q01DX009 (ip), vehicle: saline with Tween-80 89 % of control
